# Measurements reported in paper PMC6433934, “Preclinical Evaluation of Bispecific Adaptor Molecule Controlled Folate Receptor CAR-T Cell Therapy With Special Focus on Pediatric Malignancies” (Frontiers in Oncology, 2019).
# What was measured:
# [1] = system: HOS-FRα tumor-bearing mice; assay: Toxicity and CRS rescue with sodium fluorescein; format: in vivo; conditions: ~2.5 million CD8 and ~33 million CD4 E2-CAR-T cells
# Procedure: (§1) Depending on the CAR-T cell dose and how EC17 is administered, tumor-bearing mice receiving FITC-specific CAR-T cells can experience severe CRS and varying degrees of body weight loss ([27], [33], [34]). Therefore, we developed a CRS grading system (0–5 scale) to empirically assess CRS toxicity from animals' gross morphology and social behavior to allow for better timing of CRS rescue. While grades 0 and 5 indicated normal (no CRS) or death (due to severe CRS), respectively, grades 1, 2, and 3–4 were considered mild, light-to-moderate, and severe CRS. In addition, all EC17 doses were intentionally given toward the end of any given day to allow potential CRS symptoms to develop overnight. On the days immediately following each EC17 dose, animals were scored and rescue agents such as sodium fluorescein, folic acid and leucovorin were used to mitigate CRS toxicity ([33]). In this particular instance, a batch of E2-CAR-T cells with a high EGFRt+ CD4/CD8 ratio (~93:7) was given to HOS-FRα tumor-bearing mice at a mixture of ~2.5 million CD8 and ~33 million CD4 on day 0. When EC17 was dosed, respectively, at 500, 100, and 500 nmol/kg on days 3, 10, and 12, low CRS (grades 1–2) was noted on days 4 and 11 but high CRS (grade 3) was noted on day 13. To mitigate the severe CRS toxicity, sodium fluorescein was intravenously administrated at ~96 mg/kg in the morning of day 13 and mouse plasma samples were collected 6 h later for analysis of CRS-associated cytokines.
# MDA-MB-231 tumors = assay: Effect of dietary folate on CRS and antitumor activity; format: in vivo, NSG mice
# Procedure: (§2) All animal care and use were performed according to NIH guidelines and in compliance with protocols approved by the Purdue University Animal Use and Care Committee. Female 4 to 5-weeks-old NOD/SCID gamma (NSG™) mice (stock number: 005557) were purchased from The Jackson Laboratory (Bar Harbor, ME). Unless specifically indicated, all animals were maintained on a FA-deficient diet (TestDiet, St. Louis, MO) upon arrival and throughout the study. To establish subcutaneous xenografts, MDA-MB-231 and HOS-FRα were implanted in the right flank region at 2.5 × 10^6 and 1 × 10^6 cells per animal, respectively. For intravenous xenografts, THP1-FRβ cells were inoculated at 5 × 10^6 cells per animal. Subcutaneous tumors were measured 2–3 times per week with a caliper and calculated using the ellipsoidal formula (length x width^2)/2. […] All animal doses (CAR-T cells, EC17, sodium fluorescein) were given intravenously.
# For MDA-MB-231 studies, mice received a high dose (~10 million) of a “clinical facsimile” of E2-CAR-T cells (~39% EGFRt+) with a low differentiation profile. Two days later, we started them with 3 different treatment regimens of EC17 at an average tumor size of ~293 ± 39 mm^3. The EC17 dosing was given once-a-week (SIW) at 500 nmol/kg on Mondays, or as escalating doses of 5, 50, or 100, and 500 or 1,000 nmol/kg on Monday, Thursday, and Monday with a 6 day break in-between cycles. Control mice were left untreated (received CAR-T cells but no EC17). For comparison, a cohort of tumor-free littermates also received the same number of CAR-T cells without or with EC17 SIW at 500 nmol/kg. To study the effect of high dietary folate, two sets of NSG mice were placed on either a FA-replete diet (4 mg/kg, Envigo, Indianapolis, IN) or a FA-deficient diet (TestDiet, St. Louis, MO) upon arrival. On day 0, both sets of the mice received ~10 million of the same “clinical facsimile” CAR-T cells followed by no EC17 or EC17 SIW at 500 nmol/kg starting on day 3. On the first day of EC17 administration, MDA-MB-231 tumors size averaged around ~549 ± 184 mm^3 (280–918 mm^3) in FA-replete mice, and ~559 ± 165 mm^3 (356–961 mm^3) in FA-deficient mice.
# as §1
# THP1-FRβ = assay: AML study, intravenous xenografts, EC17 dosing regimens; format: in vivo, NSG mice
# Procedure: as §2
# For AML studies, mice were intravenously infused with THP1-FRβ tumor cells 1 day prior to receiving a low dose of ~6 million E2-CAR-T cells (~23% EGFRt+). At ~3.5 days post CAR-T cell infusion, EC17 was dosed in 3 different ways including (i) SIW at 500 nmol/kg, (ii) thrice at 5/50/500 nmol/kg on Monday/Wednesday/Friday followed by a 9 day break in between cycles (TIW On/Off), and iii) as escalating doses of 5/10/100 nmol/kg in Cycle 1, 5/30/300 nmol/kg in Cycle 2, and 5/50/500 nmol/kg in Cycle 3, all on Monday/Thursday/Monday with a 6 day break in between cycles (M/Th/M, On/Off). On day 31, satellite animals were harvested for quantification of CAR-positive T cells identified in the mouse blood as human CD3ε+ EGFRt+ events and calculated as absolute numbers per 100 μL of whole blood. Upon euthanasia or at the end of study on day 38, total tumor load in THP1-FRβ tumor-bearing mice was assessed by measuring GFP+ tumor cells in the blood by flow cytometry and collecting liver weight (with metastatic lesions) and total weight of nonliver macrometastases found in the body cavities. Tumor fragments of liver metastases were enzymatically digested into single-cell suspensions and viable cell populations were analyzed for the status of CAR-T cell exhaustion using anti-human PD1, LAG3, and TIM3 (clones EH12.1, T47-530, and 7D3, respectively).
# as §1
# [2] = FA-deficient diet, ~10 million E2-CAR-T cells, subsequent EC17 doses SIW 500 nmol/kg
# [3] = FA-replete diet, EC17 SIW 500 nmol/kg, ~10 million E2-CAR-T cells, n = 5
compound,measurement,setting,value
"Nc1nc2ncc(CNc3ccc(C(=O)NC(CCC(=O)NCCNC(=S)Nc4ccc(-c5c6ccc(=O)cc-6oc6cc(O)ccc56)c(C(=O)O)c4)C(=O)O)cc3)nc2c(=O)[nH]1 (stereo not drawn) [EC17, FA-(γ)-ethylenediamine-FITC]",CRS grade,"[1]; day 13, after EC17 500 nmol/kg on day 12",3
same,CRS grade,"[1]; days 4 and 11, after EC17 500 and 100 nmol/kg on days 3 and 10",1–2
same,cures,"MDA-MB-231 tumors; FA-deficient diet, EC17 SIW 500 nmol/kg, ~10 million E2-CAR-T cells, n = 5",5/5
same,CD3ε+ EGFRt+ CAR-T cells in blood,"MDA-MB-231 tumors; FA-deficient diet, day 52, EC17 SIW 500 nmol/kg",1.6–20.4 × 10^4 per 100 μL blood
same,CRS grade,MDA-MB-231 tumors; [2],2–3
same,body weight loss,MDA-MB-231 tumors; [2],≤ 11.4%
same,complete responses,MDA-MB-231 tumors; [3],2/5
same,cures,MDA-MB-231 tumors; [3],2/5
same,partial response,MDA-MB-231 tumors; [3],1/5
same,CD3ε+ EGFRt+ CAR-T cells in blood,"MDA-MB-231 tumors; FA-replete diet, day 59, EC17 SIW 500 nmol/kg",0.027–4.3 × 10^3 per 100 μL blood
same,CRS symptoms,"MDA-MB-231 tumors; FA-replete diet, ~10 million E2-CAR-T cells, EC17 SIW 500 nmol/kg",did not show symptoms of CRS
same,non-liver macrometastases,THP1-FRβ; EC17 M/Th/M dose escalation at a slow pace per cycle,failed to control
same,CRS grade,"THP1-FRβ; EC17 M/Th/M dose escalation, Cycle 2 after 300 nmol/kg, ~6 million E2-CAR-T cells",0–1
same,CRS grade,"THP1-FRβ; EC17 SIW 500 nmol/kg, Cycles 2 and 3, ~6 million E2-CAR-T cells",1–2
same,non-liver macrometastases,THP1-FRβ; EC17 SIW and TIW at 10-fold dose escalation (on/off),successfully controlled
same,CRS grade,"THP1-FRβ; EC17 TIW 5/50/500 nmol/kg on/off, ~6 million E2-CAR-T cells",0–1
same,cures,"THP1-FRβ; THP1-FRβ xenografts, EC17 plus E2-CAR-T cells",no cures
same,circulating THP1-FRβ tumor cells in the blood,"THP1-FRβ; any of the 3 EC17 regimens vs controls, ~6 million E2-CAR-T cells",effectively reduced
